Measured values from publication PMC2923189, “An Oligopeptide Transporter of Mycobacterium tuberculosis Regulates Cytokine Release and Apoptosis of Infected Macrophages” (PLoS ONE, 2010).

Experiments:
OppAMTB = molecular target: T1, OppAMTB (Mycobacterium tuberculosis, UniProt P9WGU5)
T1 construct: gene oppA

[1] = molecular target: OppA of M. tuberculosis (OppAMTB), substrate-binding polypeptide of the Rv1280c-Rv1283c peptide transporter, recombinant wild type (Mycobacterium tuberculosis) (UniProt P9WGU5); test: radioligand binding
Sequence of OppA of M. tuberculosis (OppAMTB), substrate-binding polypeptide of the Rv1280c-Rv1283c peptide transporter, recombinant wild type (Mycobacterium tuberculosis) (P9WGU5 57-591): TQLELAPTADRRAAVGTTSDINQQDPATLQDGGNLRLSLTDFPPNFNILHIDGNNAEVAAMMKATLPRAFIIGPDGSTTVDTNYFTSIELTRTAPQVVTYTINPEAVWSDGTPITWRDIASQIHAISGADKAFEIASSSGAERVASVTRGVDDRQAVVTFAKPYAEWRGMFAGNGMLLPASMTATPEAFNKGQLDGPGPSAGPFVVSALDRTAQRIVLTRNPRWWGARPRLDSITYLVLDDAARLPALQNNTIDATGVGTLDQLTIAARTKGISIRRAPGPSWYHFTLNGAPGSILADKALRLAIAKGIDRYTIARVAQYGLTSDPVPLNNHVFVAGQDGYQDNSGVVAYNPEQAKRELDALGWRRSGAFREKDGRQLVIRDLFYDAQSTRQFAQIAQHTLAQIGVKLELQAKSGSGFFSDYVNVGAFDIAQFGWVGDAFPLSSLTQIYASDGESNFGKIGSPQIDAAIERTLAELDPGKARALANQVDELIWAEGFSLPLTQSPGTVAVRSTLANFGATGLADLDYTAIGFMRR

T1 sequence (P9WGU5 57-591): as above

| Compound | % GSH binding with 1 mM competitor (OppAMTB) | amount bound at 1 mM GSH (pmol GSH/mg protein) [1] |
| --- | --- | --- |
| N[C@@H](CS)C(=O)NCC(=O)O [cys-gly] | dipeptide glu-cys was a more efficient competitor of GSH binding than the peptide cys-gly | – |
| N[C@@H](CCC(=O)N[C@@H](CS)C(=O)O)C(=O)O [glu-cys] | dipeptide glu-cys was a more efficient competitor of GSH binding than the peptide cys-gly | – |
| glutathione (tripeptide) | – | 146 |
